Among the data in patent US5532234A, “Use of 1-[4-[4-aryl (or heteroaryl)-1-piperazinyl]-butyl)-1H-azole derivatives for the preparation of medicaments intended for the treatment of disorders of gastric secretion” (Laboratories Del Dr. Esteve, S.A., priority 1993, dated 1996) are ED50 and inhibition in vivo values, retold here.

Like-named read-outs stand apart in the source and are kept apart here.

This assay has as its system gastric acid secretion. As to the kind of experiment: Inhibitory activity on gastric acid secretion, Shay Method (pylorus-ligated rats). The format is in vivo, male Wistar rats. The conditions noted are these: Rattus norvegicus, 2 h; for ED50: read-out: ED50 (inhibition of gastric acid secretion); for inhibition in vivo at 40 mg/kg: intraduodenal, read-out: Percentage of inhibition of gastric acid secretion. The text has this:
Inhibitory activity on gastric acid secretion, Shay Method [Shay, H., Komarov, S. A., Fels, S. S., Merange, D., Grvenstein, M., Siplet, H.: Gastroenterology, 5, 43 (1945)--Visscher, F. E., Seay, P. H., Taxelaar, A. P., Veldhamp, W., Vander Brook, M. J.: J. Pharmac. Exp. Ther., 110, 188 (1954)--"Animal Experiments in Pharmacological Analysis", F. R. Domer; C. C. Thomas Pub, Springfield, Ill., USA, 1970, p. 140].
In this test, male Wistar rats weighing 200 to 250 grams are used, which rats are denied food from the day prior to that of the test, with free access to water. Batches which each contain at least 4 animals are used.
The rats are anesthetized with ethyl ether, a laparotomy is carried out on them and their pylori are ligatured, and then the abdominal incision is stitched up. Administration of the products, with the vehicle for the control batch, is carried out intraduodenally (i.d.) before stitching up the abdominal incision. The dose administered for the first test is 40 mg/kg and the 50% effective dose (ED50) by the i.d. route is also determined in a second test. The vehicle used is 5% w/v gum arabic in doubly-distilled water.
Two hours after ligaturing the pylorus, the rats are sacrificed by prolonged anesthesia with ethyl ether and the volume of the gastric juice is measured and the total acidity is determined using a pH meter equipped with an automatic burette. The percentage of inhibition of the gastric acid secretion is determined, with respect to the control batch, for each product and for each dose tested.
The results obtained for some of the derivatives of the present invention are summarized, as non-limiting examples, in Table II.

The mark [1] stands for this setting: i.d. route, rats, Shay Method, two hours after pylorus ligature.
[2] abbreviates: Dose = 40 mg/kg, i.d. route, rats, Shay Method, two hours after pylorus ligature.

What is called ED50 is the dose that gives a 50% effect, or the effect in half of the subjects. As to `CN/C(=N/CCSCc1nc[nH]c1C)NC#N` [Cimetidine, reference compound], the ED50 was 11.5 mg/kg and the inhibition in vivo at 40 mg/kg was 69%.

With `c1cnc(N2CCN(CCCCn3cccc3)CC2)nc1` [Example 1], the ED50 under setting [1] was determined as 12 mg/kg. The inhibition in vivo at 40 mg/kg under setting [2] was determined as 90%.

As for `c1cnc(N2CCN(CCCCn3c4ccccc4c4ccccc43)CC2)nc1` [Example 2], the ED50 under setting [1] was determined as 46 mg/kg. For the same compound, the inhibition in vivo at 40 mg/kg under setting [2] was found to be 44%.

With `c1cnc(N2CCN(CCCCn3ccc4ccccc43)CC2)nc1` [Example 3], under setting [1], the 50% effective dose (ED50) is 30 mg/kg. In addition, the inhibition in vivo at 40 mg/kg under setting [2] turned out to be 63%.

`O=C(O)c1cnn(CCCCN2CCN(c3ncccn3)CC2)c1` [Example 6]: under setting [1], the 50% effective dose (ED50) stood at 52 mg/kg. Also, under setting [2], the inhibition in vivo at 40 mg/kg is 41%.

For `Cc1cc(C(F)(F)F)n(CCCCN2CCN(c3ncccn3)CC2)n1` [Example 7], the ED50 under setting [1] was found to be 47 mg/kg. Besides, the inhibition in vivo at 40 mg/kg under setting [2] was 40%.

Turning to `c1ccc(-c2nc(-c3ccccc3)n(CCCCN3CCN(c4ncccn4)CC3)c2-c2ccccc2)cc1` [Example 9], the ED50 under setting [1] was determined as 45 mg/kg. In addition, under setting [2], the inhibition in vivo at 40 mg/kg was found to be 35%.

Regarding `Cc1nc(-c2ccccc2)c(-c2ccccc2)n1CCCCN1CCN(c2ncccn2)CC1` [Example 10], under setting [1], the ED50 turned out to be 19 mg/kg. Under setting [2], the inhibition in vivo at 40 mg/kg came to 81%.

For `Cc1nc(Cl)c(Cl)n1CCCCN1CCN(c2ncccn2)CC1` [Example 11], the ED50 under setting [1] is 14 mg/kg. Further, under setting [2], the inhibition in vivo at 40 mg/kg turned out to be 81%.

Take `CCc1nccn1CCCCN1CCN(c2ncccn2)CC1` [Example 12]: the 50% effective dose (ED50) under setting [1] worked out at 52 mg/kg. For the same compound, under setting [2], the inhibition in vivo at 40 mg/kg was found to be 37%.

With `c1ccc(-c2nccn2CCCCN2CCN(c3ncccn3)CC2)cc1` [Example 13], the ED50 under setting [1] was 45 mg/kg. Also, the inhibition in vivo at 40 mg/kg under setting [2] stood at 44%.

In the case of `c1ccc(-c2cn(CCCCN3CCN(c4ncccn4)CC3)cn2)cc1` [Example 15], under setting [1], the ED50 amounted to 36 mg/kg. In addition, under setting [2], the inhibition in vivo at 40 mg/kg came to 53%.

Take `c1cnc(N2CCN(CCCCn3cnc4ccccc43)CC2)nc1` [Example 16]: the ED50 under setting [1] turned out to be 25 mg/kg. Besides, under setting [2], the inhibition in vivo at 40 mg/kg is 71%.

For `c1cnc(N2CCN(CCCCn3cnc4cccnc43)CC2)nc1` [Example 17], under setting [1], the ED50 was determined as 19 mg/kg. Further, the inhibition in vivo at 40 mg/kg under setting [2] was 63%.

Turning to `c1cnc(N2CCN(CCCCn3nnc4ccccc43)CC2)nc1` [Example 19], the ED50 under setting [1] was 42 mg/kg. Under setting [2], the inhibition in vivo at 40 mg/kg turned out to be 49%.

`c1cnc(N2CCN(CCCCn3cncn3)CC2)nc1` [Example 21]: under setting [1], the ED50 came to 4.4 mg/kg. The inhibition in vivo at 40 mg/kg under setting [2] was found to be 71%.

Regarding `c1cnc(N2CCN(CCCCn3nc4ccccc4n3)CC2)nc1` [Example 22], the ED50 under setting [1] amounted to 34 mg/kg. Also, the inhibition in vivo at 40 mg/kg under setting [2] amounted to 55%.

On to `Cc1cc2ncn(CCCCN3CCN(c4ncccn4)CC3)c2cc1C` [Example 24], for which the ED50 under setting [1] amounted to 36 mg/kg. Further, the inhibition in vivo at 40 mg/kg under setting [2] was 59%.

As to `c1cnc(N2CCN(CCCCn3cccn3)CC2)nc1` [Example 25], the ED50 under setting [1] is 21 mg/kg. Further, under setting [2], the inhibition in vivo at 40 mg/kg was found to be 85%.

On to `Cc1nn(CCCCN2CCN(c3ncccn3)CC2)c(C)c1[N+](=O)[O-]` [Example 27], for which the ED50 under setting [1] was determined as 17 mg/kg. The inhibition in vivo at 40 mg/kg under setting [2] was found to be 63%.

In the case of `c1cnc(N2CCN(CCCCn3ncc4ccccc43)CC2)nc1` [Example 29], the ED50 under setting [1] is 21 mg/kg. Under setting [2], the inhibition in vivo at 40 mg/kg is 81%.

For the compound `O=[N+]([O-])c1cnn(CCCCN2CCN(c3ncccn3)CC2)c1` [Example 31], the ED50 under setting [1] was found to be 2.7 mg/kg. For the same compound, under setting [2], the inhibition in vivo at 40 mg/kg was 90%.

For `Clc1cnn(CCCCN2CCN(c3ncccn3)CC2)c1` [Example 32], under setting [1], the ED50 was 15 mg/kg. Besides, under setting [2], the inhibition in vivo at 40 mg/kg came out at 78%.

Regarding `Cc1cc(-c2ccccc2)n(CCCCN2CCN(c3ncccn3)CC2)n1` [Example 34], the ED50 under setting [1] amounted to 50 mg/kg. Also, under setting [2], the inhibition in vivo at 40 mg/kg is 45%.

In the case of `Brc1cnn(CCCCN2CCN(c3ncccn3)CC2)c1` [Example 35], the ED50 under setting [1] is 11 mg/kg. In addition, the inhibition in vivo at 40 mg/kg under setting [2] stood at 64%.

As for `N#Cc1cnn(CCCCN2CCN(c3ncccn3)CC2)c1` [Example 36], the ED50 under setting [1] was 2.1 mg/kg. Moreover, under setting [2], the inhibition in vivo at 40 mg/kg was determined as 78%.

Take `Fc1cnn(CCCCN2CCN(c3ncccn3)CC2)c1` [Example 37]: the ED50 under setting [1] turned out to be 17 mg/kg. The inhibition in vivo at 40 mg/kg under setting [2] amounted to 79%.

For the compound `COc1ccc(-c2cnn(CCCCN3CCN(c4ncccn4)CC3)c2)cc1` [Example 44], under setting [1], the ED50 was found to be 31 mg/kg. For the same compound, the inhibition in vivo at 40 mg/kg under setting [2] came out at 81%.

As to `c1ccc(-c2ccc(-c3cnn(CCCCN4CCN(c5ncccn5)CC4)c3)cc2)cc1` [Example 45], the ED50 under setting [1] was found to be 12 mg/kg. Also, the inhibition in vivo at 40 mg/kg under setting [2] was determined as 74%.

As to `c1cnc(N2CCN(CCCCn3cc(-n4cccc4)cn3)CC2)nc1` [Example 46], under setting [1], the ED50 amounted to 9.5 mg/kg. Also, the inhibition in vivo at 40 mg/kg under setting [2] was found to be 92%.

As for `c1ccc(-c2cnn(CCCCN3CCN(c4ncccn4)CC3)c2)cc1` [Example 47], under setting [1], the ED50 turned out to be 11 mg/kg. Further, the inhibition in vivo at 40 mg/kg under setting [2] turned out to be 88%.

In the case of `CCCS(=O)(=O)Nc1cnn(CCCCN2CCN(c3ncccn3)CC2)c1` [Example 52], the ED50 under setting [1] was found to be 40 mg/kg. Besides, the inhibition in vivo at 40 mg/kg under setting [2] was 54%.

Take `CCS(=O)(=O)Nc1cnn(CCCCN2CCN(c3ncccn3)CC2)c1` [Example 53]: the ED50 under setting [1] is 6.4 mg/kg. Further, under setting [2], the inhibition in vivo at 40 mg/kg turned out to be 90%.

Turning to `Clc1ncn(CCCCN2CCN(c3ncccn3)CC2)c1Cl` [Example 59], the ED50 under setting [1] was 20 mg/kg. For the same compound, the inhibition in vivo at 40 mg/kg under setting [2] was 75%.

For the compound `COc1ccc(N2CCN(CCCCn3cc(Cl)cn3)CC2)cc1` [Example 60], the ED50 under setting [1] worked out at 26 mg/kg. The inhibition in vivo at 40 mg/kg under setting [2] stood at 63%.

On to `COc1ccc(N2CCN(CCCCn3c(C)nc(Cl)c3Cl)CC2)cc1` [Example 61], for which the ED50 under setting [1] was determined as 13 mg/kg. Further, the inhibition in vivo at 40 mg/kg under setting [2] worked out at 86%.

Turning to `COc1ccccc1N1CCN(CCCCn2cc(Cl)cn2)CC1` [Example 62], the median effective dose (ED50) under setting [1] is 13 mg/kg. The inhibition in vivo at 40 mg/kg under setting [2] stood at 81%.

For `COc1ccccc1N1CCN(CCCCn2c(C)nc(Cl)c2Cl)CC1` [Example 63], the ED50 under setting [1] was 10 mg/kg. For the same compound, the inhibition in vivo at 40 mg/kg under setting [2] came out at 89%.

For `COc1cccc(N2CCN(CCCCn3cc(Cl)cn3)CC2)c1` [Example 64], under setting [1], the ED50 worked out at 20 mg/kg. Under setting [2], the inhibition in vivo at 40 mg/kg came to 68%.

For the compound `COc1ccccc1N1CCN(CCCCn2cccc2)CC1` [Example 66], under setting [1], the ED50 was found to be 27 mg/kg. Besides, the inhibition in vivo at 40 mg/kg under setting [2] amounted to 65%.

`c1ccc(N2CCN(CCCCn3cccc3)CC2)cc1` [Example 67]: the ED50 under setting [1] was 8.7 mg/kg. For the same compound, the inhibition in vivo at 40 mg/kg under setting [2] was found to be 90%.

With `Clc1cnn(CCCCN2CCN(c3ccccc3)CC2)c1` [Example 68], under setting [1], the ED50 turned out to be 13 mg/kg. For the same compound, the inhibition in vivo at 40 mg/kg under setting [2] is 94%.

Turning to `Cc1nc(Cl)c(Cl)n1CCCCN1CCN(c2ccccc2)CC1` [Example 69], the ED50 under setting [1] was 7.6 mg/kg. The inhibition in vivo at 40 mg/kg under setting [2] worked out at 71%.

Consider `Cc1nc(Cl)c(Cl)n1CCCCN1CCN(c2ccccc2Cl)CC1` [Example 71], for which, under setting [1], the ED50 worked out at 9.1 mg/kg. The inhibition in vivo at 40 mg/kg under setting [2] is 73%.

For `Clc1cccc(N2CCN(CCCCn3cc(Cl)cn3)CC2)c1` [Example 72], the ED50 under setting [1] was found to be 21 mg/kg. Also, the inhibition in vivo at 40 mg/kg under setting [2] was 88%.
